# Reference: US11530213B2, “Naphthyridinone derivatives and their use in the treatment of arrhythmia” (NOVARTIS AG, priority 2016, dated 2022)
# Biological target: GIRK1/4 (Homo sapiens (Human), UniProt P48544+P48549)
# Experiment: GIRK1/4 inhibition, Quattro (IonWorks) population patch clamp, inward potassium current in GIRK 1/4 HEK293 stable cells (test assay No. 1)
# Type: cell-based
# Details: percentage of current inhibition normalized to DMSO-only control
# Method in brief: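 GIRK1/4-expressing HEK293 cells were recorded by IonWorks Quattro perforated patch (amphotericin B), with inward K+ current measured at 1200-1220 ms during a −120 to 40 mV ramp, before and after compound (50-0.1 µM or 0.5-0.01 µM final, quadruplicate). IC50 came from % current inhibition normalized to DMSO control.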
# Sequence of GIRK1/4 (P48549 whole entry): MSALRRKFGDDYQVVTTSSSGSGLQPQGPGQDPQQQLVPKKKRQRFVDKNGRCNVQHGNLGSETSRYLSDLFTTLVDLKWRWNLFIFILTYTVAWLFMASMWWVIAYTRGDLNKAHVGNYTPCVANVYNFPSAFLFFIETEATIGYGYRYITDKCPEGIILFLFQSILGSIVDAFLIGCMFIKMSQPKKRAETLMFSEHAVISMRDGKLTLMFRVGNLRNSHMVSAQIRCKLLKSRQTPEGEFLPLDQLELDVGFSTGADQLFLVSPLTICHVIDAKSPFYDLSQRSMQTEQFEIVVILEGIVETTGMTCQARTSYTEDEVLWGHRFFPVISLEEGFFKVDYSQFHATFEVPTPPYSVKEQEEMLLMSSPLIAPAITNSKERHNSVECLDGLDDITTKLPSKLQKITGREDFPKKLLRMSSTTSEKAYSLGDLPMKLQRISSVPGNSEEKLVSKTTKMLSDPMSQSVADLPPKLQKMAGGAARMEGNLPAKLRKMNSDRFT
# Sequence of GIRK1/4 (P48544 whole entry): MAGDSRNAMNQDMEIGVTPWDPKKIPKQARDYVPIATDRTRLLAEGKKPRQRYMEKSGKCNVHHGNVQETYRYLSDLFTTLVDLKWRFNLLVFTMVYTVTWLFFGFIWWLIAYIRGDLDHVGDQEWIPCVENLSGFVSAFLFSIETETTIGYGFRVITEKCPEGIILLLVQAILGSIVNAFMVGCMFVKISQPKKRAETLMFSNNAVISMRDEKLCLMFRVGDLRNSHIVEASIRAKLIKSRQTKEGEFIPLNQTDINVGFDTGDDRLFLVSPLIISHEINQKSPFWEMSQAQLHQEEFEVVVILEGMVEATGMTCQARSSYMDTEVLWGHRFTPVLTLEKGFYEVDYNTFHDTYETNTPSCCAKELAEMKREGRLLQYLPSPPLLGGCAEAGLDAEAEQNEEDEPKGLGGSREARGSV
row,SMILES,IC50
1,"O=c1cc(CO)n(-c2c(Cl)cccc2Cl)c2c(Cl)cnc(COC(CO)CO)c12 [Example 88, 8-Chloro-1-(2,6-dichlorophenyl)-5-(((1,3-dihydroxypropan-2-yl)oxy)methyl)-2-(hydroxymethyl)-1,6-naphthyridin-4(1H)-one]",1230 nM
2,"Cc1cc(=O)c2c(OCC(O)CO)ncc(Cl)c2n1-c1c(Cl)cc(C#CC(C)(C)N)cc1Cl (centres unmarked) [Example 90, 1-(4-(3-Amino-3-methylbut-1-yn-1-yl)-2,6-dichlorophenyl)-8-chloro-5-(2,3-dihydroxypropoxy)-2-methyl-1,6-naphthyridin-4(1H)-one]",327 nM
3,"Cc1cc(=O)c2c(OCCO)ncc(Cl)c2n1-c1c(Cl)cc(C#CCN2CCOCC2)cc1Cl [Example 91, 8-Chloro-1-(2,6-dichloro-4-(3-morpholinoprop-1-yn-1-yl)phenyl)-5-(2-hydroxyethoxy)-2-methyl-1,6-naphthyridin-4(1H)-one]",40 nM
4,"Cc1cc(=O)c2c(OCCO)ncc(Cl)c2n1-c1c(Cl)cc(C#CCN2CCS(=O)(=O)CC2)cc1Cl [Example 92, 8-Chloro-1-(2,6-dichloro-4-(3-(1,1-dioxidothiomorpholino)prop-1-yn-1-yl)phenyl)-5-(2-hydroxyethoxy)-2-methyl-1,6-naphthyridin-4(1H)-one]",47 nM
5,"Cc1cc(=O)c2c(OCC3COC(C)(C)O3)ncc(Cl)c2n1-c1c(Cl)cc(C#CCN(C)C)cc1Cl (centres unmarked) [Example 93, 8-Chloro-1-(2,6-dichloro-4-(3-(dimethylamino)prop-1-yn-1-yl)phenyl)-5-((2,2-dimethyl-1,3-dioxolan-4-yl)methoxy)-2-methyl-1,6-naphthyridin-4(1H)-one]",46 nM

# Further lines, results first:
row,IC50,SMILES
1,23 nM,"Cc1cc(=O)c2c(CC(O)CO)ncc(Cl)c2n1-c1c(Cl)cccc1Cl (centres unmarked) [Example 81, 8-Chloro-1-(2,6-dichlorophenyl)-5-(2,3-dihydroxpropyl)-2-methyl-1,6-naphthyridin-4(1H)-one]"
2,147 nM,"O=c1cc(CO)n(-c2c(Cl)cccc2Cl)c2c(Cl)cnc(C(O)CO)c12 (centres unmarked) [Example 82, 8-Chloro-1-(2,6-dichlorophenyl)-5-(1,2-dihydroxyethyl)-2-(hydroxymethyl)-1,6-naphthyridin-4(1H)-one]"
3,19 nM,"Cc1cc(=O)c2c(C(O)CO)ncc(Cl)c2n1-c1c(Cl)cccc1Cl (centres unmarked) [Example 85, 8-Chloro-1-(2,6-dichlorophenyl)-5-(1,2-dihydroxyethyl)-2-methyl-1,6-naphthyridin-4(1H)-one]"
4,37 nM,"Cc1cc(=O)c2c(C(=O)CO)ncc(Cl)c2n1-c1c(Cl)cccc1Cl [Example 86, 8-Chloro-1-(2,6-dichlorophenyl)-5-(2-hydroxyacetyl)-2-methyl-1,6-naphthyridin-4(1H)-one]"
5,2260 nM,"O=c1cc(CO)n(-c2c(Cl)cccc2Cl)c2c(Cl)cnc(COCC(O)CO)c12 (centres unmarked) [Example 87, 8-Chloro-1-(2,6-dichlorophenyl)-5-((2,3-dihydroxypropoxy)methyl)-2-(hydroxymethyl)-1,6-naphthyridin-4(1H)-one]"
6,24 nM,"Cc1cc(=O)c2c(C(C)(O)C(=O)CO)ncc(Cl)c2n1-c1c(Cl)cccc1Cl (centres unmarked) [Example 89, 8-Chloro-1-(2,6-dichlorophenyl)-5-(2,4-dihydroxy-3-oxobutan-2-yl)-2-methyl-1,6-naphthyridin-4(1H)-one]"
